Reference: PubChem BioAssay (NCI)
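GI50: concentration for 50% inhibition of growth. TGI marks complete inhibition of growth.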

What was measured:
Assay in all cases: growth of human tumour cells (NCI), 384-well format
786-0 renal = system: 786-0 renal
A498 renal = system: A498 renal
A549 NSCLC = system: A549 NSCLC
ACHN renal = system: ACHN renal
BT-549 breast = system: BT-549 breast
CAKI-1 renal = system: CAKI-1 renal
DU-145 prostate = system: DU-145 prostate
EKVX NSCLC = system: EKVX NSCLC
HCC-2998 colon = system: HCC-2998 colon
HCT-116 colon = system: HCT-116 colon
HCT-15 colon = system: HCT-15 colon
HL-60(TB) leukemia = system: HL-60(TB) leukemia
HOP-62 NSCLC = system: HOP-62 NSCLC
HOP-92 NSCLC = system: HOP-92 NSCLC
HT29 colon = system: HT29 colon
IGROV1 ovarian = system: IGROV1 ovarian
KM12 colon = system: KM12 colon
LOX IMVI melanoma = system: LOX IMVI melanoma
M14 melanoma = system: M14 melanoma
MALME-3M melanoma = system: MALME-3M melanoma
MCF7 breast = system: MCF7 breast
MDA-MB-468 breast = system: MDA-MB-468 breast
NCI-H226 lung = system: NCI-H226 lung
OVCAR-4 ovarian = system: OVCAR-4 ovarian
PC-3 prostate = system: PC-3 prostate
RPMI-8226 leukemia = system: RPMI-8226 leukemia
RXF 393 renal = system: RXF 393 renal
SF-268 CNS = system: SF-268 CNS
SK-MEL-28 melanoma = system: SK-MEL-28 melanoma
SK-MEL-5 melanoma = system: SK-MEL-5 melanoma
SNB-19 CNS = system: SNB-19 CNS
SNB-75 CNS = system: SNB-75 CNS
SW-620 colon = system: SW-620 colon
T-47D breast = system: T-47D breast
TK-10 renal = system: TK-10 renal
U251 glioblastoma = system: U251 glioblastoma
UACC-257 melanoma = system: UACC-257 melanoma
UACC-62 melanoma = system: UACC-62 melanoma
UO-31 renal = system: UO-31 renal

## CC(=O)c1nc(-c2ccc(C[C@@H](CNC(=O)CN(C)C)NC(=O)c3ccc(OC(C)C)c(Cl)c3)cc2)cn1C
786-0 renal
  GI50: 0.0184 µM
  TGI: 14 µM
A498 renal
  GI50: 0.039 µM
  TGI: 19.4 µM
A549 NSCLC
  GI50: 0.0367 µM
  TGI: 16.5 µM
ACHN renal
  GI50: 11 µM
  TGI: 23.2 µM
BT-549 breast
  GI50: 0.0258 µM
  TGI: 13.6 µM
CAKI-1 renal
  GI50: 0.0454 µM
  TGI: 16.5 µM
DU-145 prostate
  GI50: 0.0169 µM
  TGI: 15.9 µM
EKVX NSCLC
  GI50: 0.0241 µM
  TGI: 17.3 µM
HCC-2998 colon
  GI50: 0.0181 µM
  TGI: 6.86 µM
HCT-116 colon
  GI50: 0.0341 µM
  TGI: 15.1 µM
HCT-15 colon
  GI50: 0.0471 µM
  TGI: 16.1 µM
HL-60(TB) leukemia
  GI50: 0.0149 µM
  TGI: 0.029 µM
HOP-62 NSCLC
  GI50: 0.0414 µM
  TGI: 20.7 µM
HOP-92 NSCLC
  GI50: 1.82 µM
  TGI: 18.2 µM
HT29 colon
  GI50: 0.013 µM
  TGI: 0.06 µM
IGROV1 ovarian
  GI50: 0.0541 µM
  TGI: 20.4 µM
KM12 colon
  GI50: 0.0139 µM
  TGI: 19.8 µM
LOX IMVI melanoma
  GI50: 0.0628 µM
  TGI: 18 µM
M14 melanoma
  GI50: 0.0174 µM
  TGI: 0.0515 µM
MALME-3M melanoma
  GI50: 0.0613 µM
  TGI: 1.7 µM
MCF7 breast
  GI50: 0.0601 µM
  TGI: 18.2 µM
MDA-MB-468 breast
  TGI: 0.0295 µM
NCI-H226 lung
  GI50: 12.2 µM
  TGI: 24.6 µM
OVCAR-4 ovarian
  GI50: 12.5 µM
  TGI: 25.1 µM
PC-3 prostate
  GI50: 0.0314 µM
  TGI: 19.1 µM
RPMI-8226 leukemia
  GI50: 0.0213 µM
  TGI: 0.0429 µM
RXF 393 renal
  GI50: 0.0192 µM
  TGI: 10.9 µM
SF-268 CNS
  GI50: 0.0123 µM
  TGI: 0.0439 µM
SK-MEL-28 melanoma
  GI50: 1.13 µM
  TGI: 7.5 µM
SK-MEL-5 melanoma
  GI50: 0.0254 µM
  TGI: 1.18 µM
SNB-19 CNS
  GI50: 0.0145 µM
  TGI: 21.5 µM
SNB-75 CNS
  GI50: 0.0558 µM
  TGI: 15.8 µM
SW-620 colon
  GI50: 0.0473 µM
  TGI: 20.6 µM
T-47D breast
  GI50: 0.0227 µM
  TGI: 13.1 µM
TK-10 renal
  GI50: 10.2 µM
  TGI: 21.9 µM
U251 glioblastoma
  GI50: 0.0162 µM
  TGI: 16.9 µM
UACC-257 melanoma
  GI50: 0.0683 µM
  TGI: 1.76 µM
UACC-62 melanoma
  GI50: 0.0161 µM
  TGI: 17.9 µM
UO-31 renal
  GI50: 0.823 µM
  TGI: 20.9 µM
